The record followed here is US12180207B2 (ARRAY BIOPHARMA INC., priority 2018, dated 2024).

For test [1], the target named is phosphorylated FGFR3 (SEQ ID NO: 5, amino acids 449 to 759) (Homo sapiens (Human), UniProt P22607). The test can be described thus: FGFR enzyme binding assay (HTRF tracer displacement), FGFR3. Particulars: 5 nM phosphorylated FGFR3, average of multiple determinations if made. The method in brief:
(§1)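 Kinase and tracer were incubated with compound for 60 minutes at 22° C. Tracer displacement was then measured by HTRF, and results were expressed as POC with 1 μM control inhibitor defining full displacement.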

The target in test [2] is FGFR1 (SEQ ID NO: 1, amino acids 458-765) (Homo sapiens (Human), UniProt P11362). The test can be described thus: LC/MS FGFR1 kobs assay (covalent protein modification). Format: binding. Particulars: 500 nM FGFR1, 3 μM compound. Put shortly: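 Covalent labeling of FGFR1 kinase domain (aa 458-765) tracked over time by intact-protein LC/MS after formic acid quench. kobs derived by fitting DMSO-normalized percent unmodified FGFR1 to an exponential decay model.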

The target in test [3] is FGFR3 (SEQ ID NO: 5, amino acids 449-759) (Homo sapiens (Human), UniProt P22607). Nature of the test: LC/MS FGFR3 kobs assay (covalent protein modification). Format: binding. Particulars: 500 nM FGFR3, 3 μM compound. Put shortly:
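Quench: 0.4% formic acid at each time point. Readout: intact-protein LC/MS (Q-TOF), deconvoluted masses. Analysis: % unmodified, normalized to DMSO controls, fit to exponential decay → kobs; mean of replicates where repeated.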

For test [4], the target named is HEK-293 cells transfected with dox-inducible human wild type FGFR1 (Homo sapiens (Human), UniProt P11362). Nature of the test: FGFR1 pERK cell assay. The class given is cell-based. Particulars: HEK-293 dox-inducible FGFR1, 1 hour compound, 100 ng/ml FGF-acidic; maximum concentration 5 μM. The method in brief: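 In HEK-293 cells with dox-induced human wild-type FGFR1, compounds (1:3 dilutions, top 5 μM final) were applied 1 h at 37°C before 5 min stimulation with 100 ng/ml FGF-acidic. Phospho-ERK1/2 measured by MSD sandwich immunoassay; IC50 from 4-parameter fit of POC versus vehicle and control compound.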

The target in test [5] is recombinant human FGFR2 cytoplasmic domain (amino acids 403-822) (Homo sapiens (Human), UniProt P21802). Nature of the test: FGFR2 enzyme activity assay (LanthaScreen TR-FRET). The class given is biochemical. The following applies: 15 μM ATP, 20 min incubation at 22° C., average of multiple determinations if made, read-out: FGFR2 Enz FRET IC50. Put shortly:
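Substrate phosphorylation was read by TR-FRET using Eu-PY20 antibody (60 min, 22 °C) after a 20 min, 22 °C reaction. The reaction used 15 μM ATP, 100 nM fluorescent poly-GT peptide and His-tagged FGFR2 403-822 ([…]) at pH 7.5 with 2% DMSO.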
(In general: TR-FRET usually uses a lanthanide donor and a delayed reading to cut background.)

Test [6] concerns the target dephosphorylated FGFR1 (SEQ ID NO: 1, amino acids 458 to 765) (Homo sapiens (Human), UniProt P11362). Nature of the test: FGFR enzyme binding assay (HTRF tracer displacement), FGFR1. The following applies: 5 nM dephosphorylated FGFR1, average of multiple determinations if made. Put shortly: as §1

Broadly, the IC50 is the concentration needed to halve the response being measured.

Each structure is given as a SMILES string.

Chain of FGFR1 (SEQ ID NO: 1, amino acids 458-765) (P11362 458-765): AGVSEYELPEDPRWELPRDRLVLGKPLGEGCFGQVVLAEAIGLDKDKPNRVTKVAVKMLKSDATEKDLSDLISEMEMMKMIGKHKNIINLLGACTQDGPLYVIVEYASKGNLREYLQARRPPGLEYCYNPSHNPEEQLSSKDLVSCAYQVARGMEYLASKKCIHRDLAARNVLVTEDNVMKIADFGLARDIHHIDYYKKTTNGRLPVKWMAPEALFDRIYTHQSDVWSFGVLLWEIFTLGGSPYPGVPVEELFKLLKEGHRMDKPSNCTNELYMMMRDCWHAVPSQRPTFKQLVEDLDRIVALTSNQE
Chain of dephosphorylated FGFR1 (SEQ ID NO: 1, amino acids 458 to 765) (P11362 458-765): as above
Chain of recombinant human FGFR2 cytoplasmic domain (amino acids 403-822) (P21802 402-821): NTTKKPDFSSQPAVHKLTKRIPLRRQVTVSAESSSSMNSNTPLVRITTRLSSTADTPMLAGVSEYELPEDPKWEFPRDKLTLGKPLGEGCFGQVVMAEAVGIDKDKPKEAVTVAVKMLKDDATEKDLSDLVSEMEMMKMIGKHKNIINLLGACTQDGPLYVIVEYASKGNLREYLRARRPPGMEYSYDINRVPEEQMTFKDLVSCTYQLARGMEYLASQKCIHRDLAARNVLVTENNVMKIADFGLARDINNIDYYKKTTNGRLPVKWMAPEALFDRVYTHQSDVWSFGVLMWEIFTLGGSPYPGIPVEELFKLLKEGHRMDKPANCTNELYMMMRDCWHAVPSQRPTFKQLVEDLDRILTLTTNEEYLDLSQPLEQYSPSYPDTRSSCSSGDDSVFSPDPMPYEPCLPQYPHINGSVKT
Chain of HEK-293 cells transfected with dox-inducible human wild type FGFR1 (P11362 22-822): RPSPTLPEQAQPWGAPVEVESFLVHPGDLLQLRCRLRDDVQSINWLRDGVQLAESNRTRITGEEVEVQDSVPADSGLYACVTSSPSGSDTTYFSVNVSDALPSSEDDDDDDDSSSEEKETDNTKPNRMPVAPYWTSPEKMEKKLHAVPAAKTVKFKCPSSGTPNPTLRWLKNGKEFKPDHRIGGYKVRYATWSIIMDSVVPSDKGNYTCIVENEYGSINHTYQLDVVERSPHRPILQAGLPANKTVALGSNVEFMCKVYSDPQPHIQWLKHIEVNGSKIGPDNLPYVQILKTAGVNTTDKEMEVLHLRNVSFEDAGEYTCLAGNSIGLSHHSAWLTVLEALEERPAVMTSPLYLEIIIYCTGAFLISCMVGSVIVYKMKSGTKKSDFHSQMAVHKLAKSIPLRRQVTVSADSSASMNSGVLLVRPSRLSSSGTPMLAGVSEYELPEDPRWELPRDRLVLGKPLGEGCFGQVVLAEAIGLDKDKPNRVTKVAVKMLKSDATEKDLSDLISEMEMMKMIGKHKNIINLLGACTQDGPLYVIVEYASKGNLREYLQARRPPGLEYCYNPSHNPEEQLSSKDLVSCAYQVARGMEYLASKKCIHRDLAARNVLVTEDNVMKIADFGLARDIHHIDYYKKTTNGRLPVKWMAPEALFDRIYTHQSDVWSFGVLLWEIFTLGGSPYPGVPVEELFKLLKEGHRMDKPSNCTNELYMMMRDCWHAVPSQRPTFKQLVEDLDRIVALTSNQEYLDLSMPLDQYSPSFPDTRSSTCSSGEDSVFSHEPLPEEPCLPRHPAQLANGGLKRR
Chain of FGFR3 (SEQ ID NO: 5, amino acids 449-759) (P22607 449-759): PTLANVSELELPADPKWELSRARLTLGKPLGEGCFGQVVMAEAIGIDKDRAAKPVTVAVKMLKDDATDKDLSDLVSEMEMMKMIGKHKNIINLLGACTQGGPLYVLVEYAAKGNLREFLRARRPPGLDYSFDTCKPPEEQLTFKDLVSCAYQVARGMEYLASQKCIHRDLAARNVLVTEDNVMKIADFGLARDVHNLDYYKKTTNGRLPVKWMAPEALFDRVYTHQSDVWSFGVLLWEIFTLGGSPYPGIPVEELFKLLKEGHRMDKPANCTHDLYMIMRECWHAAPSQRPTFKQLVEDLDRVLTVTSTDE
Chain of phosphorylated FGFR3 (SEQ ID NO: 5, amino acids 449 to 759) (P22607 449-759): as above

Turning to `C=CC(=O)N1CC(OC)(C(=O)N2CCC(n3nc(C)c(-c4cc(OC)c5c(C#N)cnn5c4)c3C)CC2)C1` [Example 95, 6-(1-(1-(1-acryloyl-3-methoxyazetidine-3-carbonyl)piperidin-4-yl)-3,5-dimethyl-1H-pyrazol-4-yl)-4-methoxypyrazolo[1,5-a]pyridine-3-carbonitrile], the IC50 was 26 nM in test [1], 1070 nM in test [4], 324 nM in test [5] and 675 nM in test [6]. Also, the “FGFR1 Enz kobs” value in test [2] was found to be 0.00409 min⁻¹. Besides, in test [3], the “FGFR3 Enz kobs” value amounted to 0.04202 min⁻¹.
For `C=CC(=O)N1CC(C(=O)N2CCC(n3cc(-c4cc(C(C)C)c5c(C#N)cnn5c4)cn3)CC2)C1` [Example 129, 6-(1-(1-(1-acryloylazetidine-3-carbonyl)piperidin-4-yl)-1H-pyrazol-4-yl)-4-isopropylpyrazolo[1,5-a]pyridine-3-carbonitrile], the IC50 in test [1] was determined as 34 nM; in test [5] it was 9 nM; in test [6], 271 nM. Further, the “FGFR1 Enz kobs” value in test [2] is 0.00148 min⁻¹. Moreover, in test [3], the “FGFR3 Enz kobs” value was determined as 0.01646 min⁻¹.
For the compound `C=CC(=O)N1CC(C(=O)N2CCC(n3cc(-c4cc(-c5ccc(NC(=O)C6CC6)cc5F)c5c(C#N)cnn5c4)cn3)CC2)C1` [Example 130, N-(4-(6-(1-(1-(1-acryloylazetidine-3-carbonyl)piperidin-4-yl)-1H-pyrazol-4-yl)-3-cyanopyrazolo[1,5-a]pyridin-4-yl)-3-fluorophenyl)cyclopropane-carboxamide], the IC50 in test [1] was 3 nM; in test [5], 3 nM; in test [6], 7 nM. In addition, the “FGFR1 Enz kobs” value in test [2] was 0.00132 min⁻¹. For the same compound, the “FGFR3 Enz kobs” value in test [3] was found to be 0.01127 min⁻¹.
Consider `C=CC(=O)N1CC(C(=O)N2CCC(n3cc(-c4cc(-c5ccccc5F)c5c(C#N)cnn5c4)cn3)CC2)C1` [Example 131, 6-(1-(1-(1-acryloylazetidine-3-carbonyl)piperidin-4-yl)-1H-pyrazol-4-yl)-4-(2-fluorophenyl)pyrazolo[1,5-a]pyridine-3-carbonitrile], for which the IC50 came to 1 nM in test [1], 10 nM in test [5] and 7 nM in test [6]. In addition, in test [2], the “FGFR1 Enz kobs” value turned out to be 0.00146 min⁻¹. The “FGFR3 Enz kobs” value in test [3] was 0.01762 min⁻¹.
Consider `C=CC(=O)N1CC(CN2CCC(n3cc(-c4cc(OC)c5c(C#N)cnn5c4)cn3)CC2)C1` [Example 132, 6-(1-(1-((1-acryloylazetidin-3-yl)methyl)piperidin-4-yl)-1H-pyrazol-4-yl)-4-methoxypyrazolo[1,5-a]pyridine-3-carbonitrile], for which the half-inhibitory concentration (IC50) was 7 nM in test [1], 13 nM in test [5] and 71 nM in test [6]. In addition, the “FGFR1 Enz kobs” value in test [2] was 0.00146 min⁻¹. The “FGFR3 Enz kobs” value in test [3] amounted to 0.013 min⁻¹.
Turning to `COc1cc(-c2cnn(C3CCN(C(=O)C4CN(C(=O)C5=CCC5)C4)CC3)c2)cn2ncc(C#N)c12` [Example 137, 6-(1-(1-(1-(cyclobut-1-ene-1-carbonyl)azetidine-3-carbonyl)piperidin-4-yl)-1H-pyrazol-4-yl)-4-methoxypyrazolo[1,5-a]pyridine-3-carbonitrile], the half-maximal inhibitory concentration (IC50) was 8 nM in test [1], 989 nM in test [4], 4 nM in test [5] and 49 nM in test [6]. The “FGFR3 Enz kobs” value in test [3] came out at 0.00097 min⁻¹.
With `COc1cc(-c2cnn(C3CCN(C(=O)C4CN(C(=O)/C=C/CN(C)C)C4)CC3)c2)cn2ncc(C#N)c12` [Example 143, (E)-6-(1-(1-(1-(4-(dimethylamino)but-2-enoyl)azetidine-3-carbonyl)piperidin-4-yl)-1H-pyrazol-4-yl)-4-methoxypyrazolo [1,5-a]pyridine-3-carbonitrile], the half-inhibitory concentration (IC50) stood at 2 nM in test [1], 2 nM in test [5] and 33 nM in test [6]. In addition, in test [2], the “FGFR1 Enz kobs” value stood at 0.00278 min⁻¹. The “FGFR3 Enz kobs” value in test [3] stood at 0.02052 min⁻¹.
On to `COc1cc(-c2cnn(C3CCN(C(=O)C4CN(C(=O)/C=C/CN5CCCCC5)C4)CC3)c2)cn2ncc(C#N)c12` [Example 145, (E)-4-methoxy-6-(1-(1-(1-(4-(piperidin-1-yl)but-2-enoyl)azetidine-3-carbonyl)piperidin-4-yl)-1H-pyrazol-4-yl)pyrazolo[1,5-a]pyridine-3-carbonitrile], for which the results for the IC50 in test [1], in test [5] and in test [6] were 4 nM, 3 nM and 60 nM, respectively. Moreover, the “FGFR1 Enz kobs” value in test [2] was determined as 0.00179 min⁻¹. The “FGFR3 Enz kobs” value in test [3] came to 0.01811 min⁻¹.
As to `COc1cc(-c2cnn(C3CCN(C(=O)C4(F)CN(C(=O)/C=C/C(F)(F)F)C4)CC3)c2C)cn2ncc(C#N)c12` [Example 155, (E)-6-(1-(1-(3-fluoro-1-(4,4,4-trifluorobut-2-enoyl)azetidine-3-carbonyl)piperidin-4-yl)-5-methyl-1H-pyrazol-4-yl)-4-methoxypyrazolo [1,5-a]pyridine-3-carbonitrile], the half-inhibitory concentration (IC50) is 10 nM in test [1], 157 nM in test [4], 114 nM in test [5] and 426 nM in test [6]. Moreover, the “FGFR1 Enz kobs” value in test [2] was 0.03227 min⁻¹.
For the compound `COc1cc(-c2cnn(C3CCN(C(=O)C4CN(C(=O)/C=C/CN(C)C)C4)CC3)c2)cn2ncc(Cl)c12` [Example 174], the half-maximal inhibitory concentration (IC50) in test [1] was 12 nM; in test [5] it was 6 nM; in test [6], 194 nM. In addition, the “FGFR1 Enz kobs” value in test [2] is 0.00242 min⁻¹. For the same compound, the “FGFR3 Enz kobs” value in test [3] stood at 0.02588 min⁻¹.
As to `COc1cc(-c2cnn(C3CCN(CC4CN(C(=O)/C=C/CN5CCCCC5)C4)CC3)c2)cn2ncc(C#N)c12` [Example 175, (E)-4-methoxy-6-(1-(1-((1-(4-(piperidin-1-yl)but-2-enoyl)azetidin-3-yl)methyl)piperidin-4-yl)-1H-pyrazol-4-yl)pyrazolo[1,5-a]pyridine-3-carbonitrile], the 50% inhibitory concentration (IC50) in test [1] was 8 nM; in test [5], 10 nM; in test [6], 90 nM. Besides, in test [2], the “FGFR1 Enz kobs” value is 0.00204 min⁻¹. For the same compound, the “FGFR3 Enz kobs” value in test [3] came to 0.01233 min⁻¹.
Take `C=CC(=O)N(C)c1ccc(C(=O)N2CCC(n3cc(-c4cc(OC)c5c(C#N)cnn5c4)cn3)CC2)cc1` [Example 178, N-(4-(4-(4-(3-cyano-4-methoxypyrazolo[1,5-a]pyridin-6-yl)-1H-pyrazol-1-yl)piperidine-1-carbonyl)phenyl)-N-methylacrylamide]: the values for the IC50 in test [1], in test [5] and in test [6] were 8 nM, 5 nM and 61 nM, respectively. Also, in test [2], the “FGFR1 Enz kobs” value was found to be 0.00131 min⁻¹. For the same compound, the “FGFR3 Enz kobs” value in test [3] was 0.01469 min⁻¹.
With `COc1cc(-c2cnn(C3CCN(C(=O)C4CN(C(=O)/C=C/CBr)C4)CC3)c2)cn2ncc(C#N)c12` [Example 180, (E)-6-(1-(1-(1-(4-bromobut-2-enoyl)azetidine-3-carbonyl)piperidin-4-yl)-1H-pyrazol-4-yl)-4-methoxypyrazolo[1,5-a]pyridine-3-carbonitrile], the values for the half-maximal inhibitory concentration (IC50) in test [1], in test [4] and in test [6] were 2 nM, 130 nM and 14 nM, respectively. Further, the “FGFR1 Enz kobs” value in test [2] was found to be 0.04552 min⁻¹. Further, the “FGFR3 Enz kobs” value in test [3] is 0.1329 min⁻¹.
